Source: US10287255B2, “Compounds as histone deacetylase 6 inhibitors and pharmaceutical compositions comprising the same” (CHONG KUN DANG PHARMACEUTICAL CORP., priority 2014, dated 2019)

Key:
human recombinant HDAC6 = molecular target: T1, human recombinant HDAC6 (Homo sapiens, UniProt Q9UBN7); test: HDAC6 enzyme activity inhibition assay (in vitro, fluorimetric); assay type: biochemical; settings: for HDAC6 selectivity (fold): HDAC6 selectivity over HDAC1; for IC50: human recombinant HDAC6, fluorimetric kit, same protocol as HDAC1
T1 construct: purchased Calbiochem 382180
T1 sequence (Q9UBN7 1-1215): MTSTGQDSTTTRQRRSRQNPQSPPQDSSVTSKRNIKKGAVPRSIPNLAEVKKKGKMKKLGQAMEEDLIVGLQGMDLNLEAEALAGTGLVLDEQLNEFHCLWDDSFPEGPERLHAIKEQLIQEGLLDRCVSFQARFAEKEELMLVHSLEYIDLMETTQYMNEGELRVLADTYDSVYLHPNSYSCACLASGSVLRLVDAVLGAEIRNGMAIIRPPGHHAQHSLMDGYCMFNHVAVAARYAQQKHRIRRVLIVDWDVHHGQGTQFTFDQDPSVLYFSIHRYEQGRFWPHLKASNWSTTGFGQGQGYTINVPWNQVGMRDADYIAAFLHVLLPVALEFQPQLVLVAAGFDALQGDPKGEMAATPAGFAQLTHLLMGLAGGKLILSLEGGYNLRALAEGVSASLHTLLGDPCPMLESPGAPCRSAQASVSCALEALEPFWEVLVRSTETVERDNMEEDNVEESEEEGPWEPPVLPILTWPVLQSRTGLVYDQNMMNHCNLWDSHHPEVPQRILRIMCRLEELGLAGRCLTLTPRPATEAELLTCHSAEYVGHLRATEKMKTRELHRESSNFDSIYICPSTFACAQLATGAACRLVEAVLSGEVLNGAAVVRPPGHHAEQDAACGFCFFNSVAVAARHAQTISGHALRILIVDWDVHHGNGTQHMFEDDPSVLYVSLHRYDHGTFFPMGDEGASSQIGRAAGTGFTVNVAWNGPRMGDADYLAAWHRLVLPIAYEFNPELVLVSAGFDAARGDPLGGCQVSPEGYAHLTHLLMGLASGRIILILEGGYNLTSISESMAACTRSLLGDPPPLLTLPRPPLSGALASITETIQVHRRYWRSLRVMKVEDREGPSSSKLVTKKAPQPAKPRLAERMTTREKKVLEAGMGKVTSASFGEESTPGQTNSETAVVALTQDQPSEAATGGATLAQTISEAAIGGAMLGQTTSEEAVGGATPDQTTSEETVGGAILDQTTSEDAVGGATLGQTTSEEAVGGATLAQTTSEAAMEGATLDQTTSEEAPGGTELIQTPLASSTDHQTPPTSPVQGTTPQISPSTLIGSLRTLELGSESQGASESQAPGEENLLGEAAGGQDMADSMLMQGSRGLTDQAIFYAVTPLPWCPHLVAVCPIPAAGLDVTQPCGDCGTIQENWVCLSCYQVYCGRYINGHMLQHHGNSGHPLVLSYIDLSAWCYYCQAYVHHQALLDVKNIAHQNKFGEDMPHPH
Procedure, shortened: (§1)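 IC50 values derive from fluorescence (Ex 360, Em 460) after developer treatment (30 min) of reactions of recombinant human HDAC1 or HDAC6 with 10 μM Fluor de Lys-SIRT1 substrate (60 min, 30 °C). Compounds were serially diluted 5-fold; 0.3 μg enzyme was used for HDAC1, with HDAC6 tested identically.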

human recombinant HDAC1 = molecular target: T2, human recombinant HDAC1 (Homo sapiens, UniProt Q13547); test: HDAC1 enzyme activity inhibition assay (in vitro, fluorimetric); assay type: biochemical; settings: human recombinant HDAC1, fluorimetric kit, 30° C. 60 minutes
T2 construct: purchased Enzo Life Science BML-SE456
T2 sequence (Q13547 whole entry): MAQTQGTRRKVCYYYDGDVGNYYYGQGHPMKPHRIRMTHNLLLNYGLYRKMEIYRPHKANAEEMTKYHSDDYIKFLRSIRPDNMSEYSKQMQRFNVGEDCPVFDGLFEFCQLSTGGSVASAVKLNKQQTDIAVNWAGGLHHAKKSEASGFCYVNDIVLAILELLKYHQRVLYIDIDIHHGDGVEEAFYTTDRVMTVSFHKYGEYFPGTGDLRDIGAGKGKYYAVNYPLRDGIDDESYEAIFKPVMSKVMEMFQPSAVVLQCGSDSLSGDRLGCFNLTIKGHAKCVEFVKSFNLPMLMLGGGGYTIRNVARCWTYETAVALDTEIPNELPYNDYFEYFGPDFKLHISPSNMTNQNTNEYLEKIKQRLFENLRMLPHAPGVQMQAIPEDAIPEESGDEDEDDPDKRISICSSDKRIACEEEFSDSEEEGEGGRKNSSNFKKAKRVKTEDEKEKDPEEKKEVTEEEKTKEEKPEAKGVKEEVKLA
Procedure, shortened: as §1

HDAC6 selectivity (fold) (human recombinant HDAC6)	IC50 (human recombinant HDAC6) [nM]	IC50 (human recombinant HDAC1) [nM]	Structure (SMILES)
26	129	3400	C[C@@H]1CN(Cc2ccc(C(=O)NO)cc2)C[C@H](C)N1C(=O)c1cccc(-c2cccnc2)c1 [Compound 246, 4-(((3R,5S)-3,5-dimethyl-4-(3-(pyridin-3-yl)benzoyl)piperazin-1-yl)methyl)-N-hydroxybenzamide]
96	89	8500	C[C@@H]1CN(Cc2ccc(C(=O)NO)cc2)C[C@@H](C)N1Cc1ccccc1 [Compound 248, 4-(((3R,5R)-4-benzyl-3,5-dimethylpiperazin-1-yl)methyl)-N-hydroxybenzamide]
130	120	15600	C[C@@H]1CN(Cc2ccc(C(=O)NO)cc2)C[C@@H](C)N1C(=O)c1ccco1 [Compound 249, 4-(((3R,5R)-4-(furan-2-carbonyl)-3,5-dimethylpiperazin-1-yl)methyl)-N-hydroxybenzamide]
354	24	8500	C[C@@H]1CN(Cc2ccc(C(=O)NO)cc2)C[C@H](C)N1Cc1cccc(-n2cccc2)c1 [Compound 255, 4-(((3R,5S)-4-(3-(1H-pyrrol-1-yl)benzyl)-3,5-dimethylpiperazin-1-yl)methyl)-N-hydroxybenzamide]
15	303	4600	C[C@@H]1CN(Cc2cccc(-n3cccc3)c2)C[C@H](C)N1Cc1ccc(C(=O)NO)cc1 [Compound 256, 4-(((2S,6R)-4-(3-(1H-pyrrol-1-yl)benzyl)-2,6-dimethylpiperazin-1-yl)methyl)-N-hydroxybenzamide]
6	255	1600	C[C@@H]1CN(C(=O)c2cccc(-c3ccco3)c2)C[C@H](C)N1Cc1ccc(C(=O)NO)cc1 [Compound 257, 4-(((2S,6R)-4-(3-(furan-2-yl)benzoyl)-2,6-dimethylpiperazin-1-yl)methyl)-N-hydroxybenzamide]
7	258	1700	C[C@@H]1CN(C(=O)c2cccc(-c3ccoc3)c2)C[C@H](C)N1Cc1ccc(C(=O)NO)cc1 [Compound 258, 4-(((2S,6R)-4-(3-(furan-3-yl)benzoyl)-2,6-dimethylpiperazin-1-yl)methyl)-N-hydroxybenzamide]
3	577	2000	C[C@@H]1CN(C(=O)c2cccc(-c3cccnc3)c2)C[C@H](C)N1Cc1ccc(C(=O)NO)cc1 [Compound 261, 4-(((2S,6R)-2,6-dimethyl-4-(3-(pyridin-3-yl)benzoyl)piperazin-1-yl)methyl)-N-hydroxybenzamide]
84	74	6200	C[C@@H]1CN(Cc2ccc(C(=O)NO)cc2)C[C@H](C)N1Cc1ccc2ccccc2c1 [Compound 265, 4-(((3R,5S)-3,5-dimethyl-4-(naphthalen-2-ylmethyl)piperazin-1-yl)methyl)-N-hydroxybenzamide]
68	282	19100	C[C@@H]1CN(Cc2ccc(C(=O)NO)cc2)C[C@H](C)N1Cc1ccncc1 [Compound 266, 4-(((3R,5S)-3,5-dimethyl-4-(pyridin-4-ylmethyl)piperazin-1-yl)methyl)-N-hydroxybenzamide]
75	188	14200	C[C@@H]1CN(Cc2ccc(C(=O)NO)cc2)C[C@H](C)N1Cc1cccc(Cl)c1C(F)(F)F [Compound 267, 4-(((3R,5S)-4-(3-chloro-2-(trifluoromethyl)benzyl)-3,5-dimethylpiperazin-1-yl)methyl)-N-hydroxybenzamide]
2	1270	2800	C[C@@H]1CN(Cc2ccc3ccccc3c2)C[C@H](C)N1Cc1ccc(C(=O)NO)cc1 [Compound 268, 4-(((2S,6R)-2,6-dimethyl-4-(naphthalen-2-ylmethyl)piperazin-1-yl)methyl)-N-hydroxybenzamide]

More lines, now with the values behind:

Structure (SMILES)	HDAC6 selectivity (fold) (human recombinant HDAC6)	IC50 (human recombinant HDAC6) [nM]	IC50 (human recombinant HDAC1) [nM]
C[C@@H]1CN(Cc2ccc(C(=O)NO)cc2)C[C@H](C)N1C(=O)c1cccc(-c2ccncc2)c1 [Compound 245, 4-(((3R,5S)-3,5-dimethyl-4-(3-(pyridin-4-yl)benzoyl)piperazin-1-yl)methyl)-N-hydroxybenzamide]	31	116	3600
C[C@@H]1CN(Cc2ccc(C(=O)NO)cc2)C[C@H](C)N1C(=O)c1cccc(C2=CCC(C)(C)CC2)c1 [Compound 247, 4-(((3R,5S)-4-(4′,4′-dimethyl-2′,3′,4′,5′-tetrahydro-[1,1′-biphenyl]-3-carbonyl)-3,5-dimethylpiperazin-1-yl)methyl)-N-hydroxybenzamide]	30	441	13300
C[C@@H]1CN(C(=O)Cc2cccc(-c3ccccc3)c2)C[C@H](C)N1Cc1ccc(C(=O)NO)cc1 [Compound 250, 4-(((2S,6R)-4-(2-([1,1′-biphenyl]-3-yl)acetyl)-2,6-dimethylpiperazin-1-yl)methyl)-N-hydroxybenzamide]	57	168	9500
C[C@@H]1CN(C(=O)Cc2cccc(-c3ccncc3)c2)C[C@H](C)N1Cc1ccc(C(=O)NO)cc1 [Compound 251, 4-(((2S,6R)-2,6-dimethyl-4-(2-(3-(pyridin-4-yl)phenyl)acetyl)piperazin-1-yl)methyl)-N-hydroxybenzamide]	57	242	13700
C[C@@H]1CN(C(=O)Cc2cccc(C3=CCOCC3)c2)C[C@H](C)N1Cc1ccc(C(=O)NO)cc1 [Compound 252, 4-(((2S,6R)-4-(2-(3-(3,6-dihydro-2H-pyran-4-yl)phenyl)acetyl)-2,6-dimethylpiperazin-1-yl)methyl)-N-hydroxybenzamide]	79	221	17500
C[C@@H]1CN(C(=O)Cc2cccc(C3=CCC(C)(C)CC3)c2)C[C@H](C)N1Cc1ccc(C(=O)NO)cc1 [Compound 253, 4-(((2S,6R)-4-(2-(4′,4′-dimethyl-2′,3′,4′,5′-tetrahydro-[1,1′-biphenyl]-3-yl)acetyl)-2,6-dimethylpiperazin-1-yl)methyl)-N-hydroxybenzamide]	15	1540	22600
C[C@@H]1CN(C(=O)c2cccc(C3=CCOCC3)c2)C[C@H](C)N1Cc1ccc(C(=O)NO)cc1 [Compound 259, 4-(((2S,6R)-4-(3-(3,6-dihydro-2H-pyran-4-yl)benzoyl)-2,6-dimethylpiperazin-1-yl)methyl)-N-hydroxybenzamide]	6	400	2500
C[C@@H]1CN(C(=O)c2cccc(-c3ccncc3)c2)C[C@H](C)N1Cc1ccc(C(=O)NO)cc1 [Compound 260, 4-(((2S,6R)-2,6-dimethyl-4-(3-(pyridin-4-yl)benzoyl)piperazin-1-yl)methyl)-N-hydroxybenzamide]	3	529	1700
C[C@@H]1CN(C(=O)c2cccc(-c3ccnc(F)c3)c2)C[C@H](C)N1Cc1ccc(C(=O)NO)cc1 [Compound 262, 4-(((2S,6R)-4-(3-(2-fluoropyridin-4-yl)benzoyl)-2,6-dimethylpiperazin-1-yl)methyl)-N-hydroxybenzamide]	3	727	2400
C[C@@H]1CN(C(=O)c2cccc(C3=CCC(C)(C)CC3)c2)C[C@H](C)N1Cc1ccc(C(=O)NO)cc1 [Compound 263, 4-(((2S,6R)-4-(4′,4′-dimethyl-2′,3′,4′,5′-tetrahydro-[1,1′-biphenyl]-3-carbonyl)-2,6-dimethylpiperazin-1-yl)methyl)-N-hydroxybenzamide]	<7	> 1000	6800
